Reference: patent publication US20170226139A1, “CRYSTALLINE SALTS OF (Z)-O-OCTADEC-9-EN-1-YL O,O-DIHYDROGEN PHOSPHOROTHIOATE” (priority 2013, published 2017)

Tests used:
Human LPA2 = Human LPA2 (Homo sapiens, UniProt Q9HBW0); assay: Competition binding assay, displacement of [3H]LPA from membranes of transfected HEK293 cells; design: expressed in transfected cells; host or cells: HEK293 (crude membrane fraction); conditions: 20 nM [3H]LPA; membranes of HEK293 cells transfected with human LPA2
Method: A further study was performed to evaluate whether Rx100 displaces lysophosphatidic acid bound to its receptor. HEK293 cells were transfected with human LPA2 receptor.

Human LPA4 = target: T1, Human LPA4 (Homo sapiens, UniProt Q99677); assay: Calcium-mobilization assay (FURA-2), human LPA4 in CHO cells; type: cell-based
T1 construct: expressed in transfected cells; host or cells: CHO
T1 sequence (Q99677 whole entry): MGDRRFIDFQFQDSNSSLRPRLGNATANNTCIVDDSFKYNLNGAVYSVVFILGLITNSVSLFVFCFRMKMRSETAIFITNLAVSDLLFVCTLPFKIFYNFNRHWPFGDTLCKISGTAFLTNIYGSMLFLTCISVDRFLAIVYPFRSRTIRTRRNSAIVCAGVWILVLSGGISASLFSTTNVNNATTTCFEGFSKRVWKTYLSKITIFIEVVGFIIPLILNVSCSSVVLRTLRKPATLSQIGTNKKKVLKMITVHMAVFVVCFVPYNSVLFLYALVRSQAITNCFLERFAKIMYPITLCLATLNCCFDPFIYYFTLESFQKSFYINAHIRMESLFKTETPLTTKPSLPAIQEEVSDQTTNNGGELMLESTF
Method: (§1) We investigated structure-activity relationships across species, LPAR subtypes and between Rx100 and two known process impurities encountered in manufacture: Rx103 (‘E’ isomer) and Rx200 (oleyl phosphate and impurity, which can be an Rx100 degradant along with oleyl alcohol). Rx100, Rx103, Rx200 and native LPA were investigated at different human LPAR subtypes. In addition, the activity of these compounds was evaluated at LPA2 receptors from the rhesus, rat and mouse species. Human LPA1/2/3 subtypes were transfected into mouse embryonic fibroblasts (MEF) or rat hepatoma cells (RH7777)—both of which are normally non-responsive or null to LPA. Human LPA4 was transfected into Chinese hamster ovary (CHO) cells and LPA5 into the B103 neuroblastoma cell line. […] The B103 rat neuroblastoma cell line is endogenously nonresponsive to LPA but expresses heterologous LPA5 receptors well. […] LPAR activation elicits a G-protein-mediated transient rise in intracellular calcium level that is proportional to the concentration of LPA applied. The intracellular calcium level was quantified by the calcium-selective fluorescent indicator FURA-2 (e.g., increased intracellular calcium surge=increased fluorescence).

[1] = target: LPA2 receptors from the rat (Rattus norvegicus, UniProt A0ABK0LT65); assay: Calcium-mobilization assay (FURA-2), rat LPA2; type: cell-based
Sequence of LPA2 receptors from the rat (A0ABK0LT65 1-348): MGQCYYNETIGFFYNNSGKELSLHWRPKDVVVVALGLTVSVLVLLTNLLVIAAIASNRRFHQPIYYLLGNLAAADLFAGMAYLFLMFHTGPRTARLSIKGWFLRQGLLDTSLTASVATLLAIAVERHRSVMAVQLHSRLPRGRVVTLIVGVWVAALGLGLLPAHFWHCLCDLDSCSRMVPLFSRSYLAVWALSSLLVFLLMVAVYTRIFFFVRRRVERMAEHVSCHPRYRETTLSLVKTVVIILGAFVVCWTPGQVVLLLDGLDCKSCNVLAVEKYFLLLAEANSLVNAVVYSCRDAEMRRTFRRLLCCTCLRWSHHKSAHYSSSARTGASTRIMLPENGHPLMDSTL
Method: as §1

Male Sprague-Dawley rats = assay: Gastrointestinal system safety pharmacology (charcoal transit, gastric emptying); type: in vivo
Method: Male Sprague-Dawley rats (n=6/group) were administered Rx100.lysine as a single oral (gavage) doses of 0 (10 mM histidine in sterile water for Injection, USP), 1.81, 6.33, and 18.1 mg/kg and monitored for gastrointestinal parameters of transit time and gastric emptying. A fifth group was treated with the positive control material morphine sulfate. Two hours after treatment, animals received an oral gavage dose of a charcoal suspension. Animals were then sacrificed 20 minutes. Parameters evaluated included gastrointestinal transit time and gastric emptying. […] No abnormal observations were recorded. […] It was concluded that there were no adverse effects on the gastrointestinal tract in rats at doses of 1.81 mg/kg (gastric emptying) or 6.33 mg/kg (transit time).

[2] = Qualitative solubility of Rx100.L-Lysine salt in 13 additional solvents; type: physicochemical; conditions: for Observation (qualitative solubility): ~50 mg solid
Description: The solubility of Rx100.L-Lysine salt was further tested in 13 additional solvents.

[3] = male, Sprague-Dawley, rat, in vivo, oral, 140 min

Sequence of Human LPA2 (Q9HBW0 whole entry): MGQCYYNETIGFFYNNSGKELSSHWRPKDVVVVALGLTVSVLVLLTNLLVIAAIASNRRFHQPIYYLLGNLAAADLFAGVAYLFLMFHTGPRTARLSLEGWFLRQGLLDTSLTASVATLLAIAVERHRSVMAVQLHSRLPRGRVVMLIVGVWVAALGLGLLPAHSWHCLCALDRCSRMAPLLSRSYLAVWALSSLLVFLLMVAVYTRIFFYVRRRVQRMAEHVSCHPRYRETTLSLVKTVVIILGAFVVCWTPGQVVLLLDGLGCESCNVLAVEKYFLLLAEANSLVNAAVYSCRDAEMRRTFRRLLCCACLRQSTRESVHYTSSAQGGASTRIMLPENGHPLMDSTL

CCCCCCCC/C=C\CCCCCCCCOP(O)(O)=S [Rx100, (Z)—O-octadec-9-en-1-yl O,O-dihydrogen phosphorothioate]
displacement of 3H-LPA (Human LPA2): displaced 3H-LPA in a concentration-dependent manner
EC50 (Human LPA4): > 5000 nM
Emax (Human LPA4; CHO, read-out: Emax (% of LPA)): 97%
EC50 [1]: 76 nM
Emax ([1]; read-out: Emax (% of LPA)): 100%

CCCCCCCC/C=C\CCCCCCCCOP(O)(O)=S [Rx100.L-Lysine, (Z)—O-octadec-9-en-1-yl O,O-dihydrogen phosphorothioate]
gastric emptying (Male Sprague-Dawley rats; 6.33 and 18.1 mg/kg, statistically significant only at 6.33 mg/kg): inhibited
dose with no adverse effects on gastric emptying (Male Sprague-Dawley rats; [3]): 1.81 mg/kg
dose with no adverse effects on transit time (Male Sprague-Dawley rats; [3]): 6.33 mg/kg
intestinal transit time (Male Sprague-Dawley rats; only at 18.1 mg/kg): increased
Observation (qualitative solubility) ([2]; Acetone:water (1:1), 0.5 mL added): dissolved
Observation (qualitative solubility) ([2]; Acetone, 0.75 mL added): slurry
Observation (qualitative solubility) ([2]; EtOH:water (1:1), 0.75 mL added): dissolved
Observation (qualitative solubility) ([2]; EtOH:water (8:2), 0.75 mL added): cloudy
Observation (qualitative solubility) ([2]; EtOH, 0.75 mL added): slurry
Qualitative solubility ([2]; IPA-water (1:1)): soluble
Observation (qualitative solubility) ([2]; IPA:water (1:1), 0.75 mL added): dissolved
Observation (qualitative solubility) ([2]; IPA:water (8:2), 0.75 mL added): oil
Observation (qualitative solubility) ([2]; IPA, 0.75 mL added): slurry
Observation (qualitative solubility) ([2]; MeOH:water (1:1), 0.5 mL added): dissolved
Observation (qualitative solubility) ([2]; MeOH:water (8:2), 0.75 mL added): dissolved
Observation (qualitative solubility) ([2]; MeOH, 0.75 mL added): slurry
Observation (qualitative solubility) ([2]; THF:water (1:1), 0.5 mL added): oil
Observation (qualitative solubility) ([2]; THF, 0.75 mL added): slurry
Qualitative solubility ([2]; acetone:water (1:1)): soluble
Qualitative solubility ([2]; ethanol:water (1:1)): soluble
Qualitative solubility ([2]; methanol:water (1:1)): soluble
Qualitative solubility ([2]; methanol:water (8:2)): soluble
